The text below walks through data of article PMC8081376 (Mutagenesis, 2020).

For series [1], the system named is rats and mice. As to conditions: cited from earlier work; for Carcinogenicity: rodent studies, topical for sodium xylene sulfonate, ref [65], [72], [82], [85].
Series [2] has as its system Phenion®FT Skin Models.
Series [3] deals with Phenion®FT Skin Models (keratinocytes and fibroblasts).
Series [4] has as its system bone marrow, blood, liver, skin. As to conditions: cited from earlier work.
Series [5] has as its system mammalian cells (CHL, V79, CHO, HuLy). The following applies: cited from earlier work.
Series [6] concerns PRH, HepG2, CHO, TK6, CHL, MA-10 cells. As to conditions: TK6 cell line; ref [73]; cited from earlier work.
The test system of series [7] is bacterial reverse mutation test (Ames test) strains. As to conditions: cited from earlier work.
Series [8] deals with Phenion®FT Skin Models (keratinocytes and fibroblasts). As to conditions: application of the dye to the skin; ref [95]; cited from earlier work.
The subject of series [9] is mammalian cells (V79, CHO, CHL, HuLy, TK6, HepG2). As to conditions: cited from earlier work.
The conditions of series [10]: EpiSkin S9 over 4 h for IQ; ref [58]; cited from earlier work.
For series [11] the following is noted: over 24 h; ref [58]; cited from earlier work.
Series [12] can be described thus: Solubility in vehicle and precipitation on the skin. In kind it is physicochemical.

Read-outs that look alike come from different tables or passages of the source. A value given as a limit tells only on which side of the number the result lay.

Turning to Sodium xylene sulfonate, in series [1], the Carcinogenicity result is on record as “negative for carcinogenicity”. In [2], the “Dose producing signs of strong cytotoxicity that limited the top dose” value is 512 µg/cm^2 and the “Dose(s) exceeding the cytotoxicity limit in main or APC experiments” value (“Dose(s) exceeding the cytotoxicity limit” for short) was found to be 640 µg/cm^2. Further, in series [3], the “Effect on % tail DNA / DNA migration in APC experiment” value is “no significant increases in % tail DNA”, the “Effect on % tail DNA / DNA migration in standard experiment” value is listed as “did not induce an increase in % tail DNA in either cell type” and the “RS Comet assay overall classification” value is “negative”.

With `O=CC=O` [Glyoxal], in [1], the Carcinogenicity entry was “non-carcinogenic”. In addition, the “In vivo micronucleus test in mice” value in [4] was “negative results”. Also, the “In vitro chromosomal aberration studies” value in series [5] was “clear positive results”. The “Dose producing signs of strong cytotoxicity that limited the top dose” value in [2] is recorded as 25 µg/cm^2. Also, in series [3], the “Call of statistical prediction models 1 and 2” value is recorded as “positive”; the “Effect on % tail DNA / DNA migration in APC experiment” value is on record as “statistically significant increase in DNA migration was observed in keratinocytes at the highest dose tested”; the “Effect on % tail DNA / DNA migration in standard experiment” value is “DNA migration was not increased in either cell type”; the “Expert call of the performing laboratory in the coded phase” value was “negative”. For the same molecule, the “RS Comet assay overall classification” value in series [3] is recorded as “negative”. Besides, in series [6], the “In vitro comet assay” value is “positive response”.

Consider `NC(=S)N(C1CCCCC1)C1CCCCC1` [N,N-dicyclohexyl thiourea], for which the Carcinogenicity entry in series [1] is “not carcinogenic”. Moreover, in series [2], the “Dose producing signs of strong cytotoxicity that limited the top dose” value came to 200 µg/cm^2 and the “Dose(s) exceeding the cytotoxicity limit” value is on record as no less than 160 µg/cm^2. Moreover, in series [3], the “Effect on % tail DNA / DNA migration in APC experiment” value was “did not cause any significant increases in % tail DNA”, the “Effect on % tail DNA / DNA migration in standard experiment” value is on record as “did not induce an increase in % tail DNA in either cell type” and the “RS Comet assay overall classification” value was “negative”.

On to `C[N+](C)(C)c1ccc2ccc(O)c(N=Nc3ccc(N)c([N+](=O)[O-])c3)c2c1.[Cl-]` [Basic Brown 17], for which the “Ames test” value in series [7] is “positive findings”. The “RS Comet assay outcome in SCCS opinion” value in series [8] is recorded as “lack of DNA damaging properties”. Moreover, the “Standard in vitro micronucleus test” value in [9] is reported as “negative findings”.

Consider `Nc1ccc(Cl)cc1` [4-Chloroaniline, 4-chloroaniline], for which, in [1], the Carcinogenicity entry is “carcinogenic”. Besides, the “Metabolism by skin S9” value in series [10] is “N-acetylated to N-acetyl-4-chloroaniline”. Besides, in series [2] (human), the “Dose producing signs of strong cytotoxicity that limited the top dose” value was 5 µg/cm^2 and the “Dose(s) exceeding the cytotoxicity limit” value is recorded as no less than 10 µg/cm^2. In series [3], the “Effect on % tail DNA / DNA migration in APC experiment” value was “did not induce an increase in DNA migration”, the “Effect on % tail DNA / DNA migration in standard experiment” value is given as “did not increase % tail DNA in either cell type” and the “RS Comet assay overall classification” value is on record as “negative”. The “Metabolism in ex vivo skin” value in series [11] was “not metabolised”.

Consider `Oc1cccc(O)c1` [Resorcinol, 1,3-Dihydroxybenzene], for which, in series [4], the “In vivo micronucleus test in mice” value is “positive” and the “In vivo micronucleus test in rats” value is “no effects”. Further, the “Dose producing signs of strong cytotoxicity that limited the top dose” value in series [2] (human) was found to be 250 µg/cm^2.

“2-Amino-3-methylimidazo[4,5-f]quinolone [IQ]”: in [1] (ref IARC), the IARC class was 2A. The “Metabolism by skin S9” value in [10] is on record as “not metabolised”. Moreover, the “Dose(s) exceeding the cytotoxicity limit” value in [2] is 33.3–300 µg/cm^2. In series [3], the “Effect on % tail DNA / DNA migration in APC experiment” value is reported as “did not show a statistically significant increase in DNA damage at any dose”, the “Effect on % tail DNA / DNA migration in standard experiment” value is “moderate increase in % tail DNA was detected in one mid-dose group that was slightly outside the cytotoxicity limits” and the “RS Comet assay overall classification” value was “negative”. The “Metabolism in ex vivo skin” value in series [11] is recorded as “not metabolised”.

Consider `CCc1cc(C(N)=S)ccn1` [Ethionamide], for which, in series [2] (human), the “Dose tested without cytotoxicity exceeding the cut-off” value was 240 µg/cm^2 and the “Dose(s) exceeding the cytotoxicity limit” value amounted to 320 µg/cm^2. The “Top dose limited by solubility in acetone” value in [12] (acetone vehicle) was found to be 320 µg/cm^2. In series [3], the “Effect on % tail DNA / DNA migration in APC experiment” value was “no significant increases in % tail DNA or cytotoxicity were observed”, the “Effect on % tail DNA / DNA migration in standard experiment” value is on record as “failed to increase % tail DNA”, the “Expert call of the performing laboratory in the coded phase” value was “equivocal” and the “RS Comet assay overall classification” value is listed as “negative”. The “Dose(s) with statistically significant increase in DNA migration, fibroblasts” value in series [3] (human) stood at 320 µg/cm^2.

In the case of `COc1cc(/C=C/C(=O)CC(=O)/C=C/c2ccc(O)c(OC)c2)ccc1O` [Curcumin], in [2] (human), the “Dose producing signs of strong cytotoxicity that limited the top dose” value stood at 50 µg/cm^2 and the “Dose(s) exceeding the cytotoxicity limit” value worked out at 50 µg/cm^2. For the same molecule, the “Doses with precipitation on the tissue surface” value in series [12] (visual inspection, at cell harvest) is on record as “precipitation was present at all the tested doses”. Also, in [3], the “Effect on % tail DNA / DNA migration in APC experiment” value is recorded as “did not increase DNA migration in either experiment”, the “Effect on % tail DNA / DNA migration in standard experiment” value is on record as “marked increase in DNA damage” and the “RS Comet assay overall classification” value is given as “negative”.
